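Grown in 96-well plates, cells were treated for 48 hours with each compound at five concentrations. Insufficient inhibition: endpoint recorded as highest concentration tested. The concentration for full growth arrest is given as TGI.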
Columns and labels:
Assay in all cases: inhibition of tumour cell growth, NCI panel, 48 h
[1] = test system: A498 renal
[2] = test system: 786-0 renal
[3] = test system: A549 NSCLC
[4] = test system: CAKI-1 renal
[5] = test system: SK-MEL-28 melanoma
[6] = test system: DU-145 prostate
[7] = test system: SNB-19 CNS
[8] = test system: SNB-75 CNS
[9] = test system: SK-OV-3 ovarian
[10] = test system: MCF7 breast
[11] = test system: MDA-MB-231 breast
[12] = test system: HOP-92 NSCLC
[13] = test system: HS 578T breast
[14] = test system: OVCAR-4 ovarian
[15] = test system: HCT-116 colon
[16] = test system: SF-268 CNS
[17] = test system: CCRF-CEM leukemia
[18] = test system: RXF 393 renal
[19] = test system: HT29 colon
[20] = test system: SK-MEL-5 melanoma
[21] = test system: IGROV1 ovarian
[22] = test system: ACHN renal
[23] = test system: HCT-15 colon
[24] = test system: SF-295 CNS
[25] = test system: HL-60(TB) leukemia
[26] = test system: NCI-H226 lung
[27] = test system: MALME-3M melanoma
[28] = test system: U251 CNS
[29] = test system: NCI-H23 lung
[30] = test system: UACC-257 melanoma
[31] = test system: T-47D breast
[32] = test system: EKVX NSCLC
[33] = test system: OVCAR-3 ovarian
[34] = test system: OVCAR-8 ovarian
[35] = test system: TK-10 renal
[36] = test system: LOX IMVI melanoma
[37] = test system: PC-3 prostate
[38] = test system: NCI-H522 lung
[39] = test system: BT-549 breast
[40] = test system: SW-620 colon
[41] = test system: NCI-H460 lung
[42] = test system: UO-31 renal
[43] = test system: COLO 205 colon
[44] = test system: HCC-2998 colon
[45] = test system: KM12 colon
[46] = test system: MOLT-4 leukemia
[47] = test system: HOP-62 NSCLC
[48] = test system: MDA-MB-435
[49] = test system: MDA-N
[50] = test system: OVCAR-5 ovarian
[51] = test system: UACC-62 melanoma
[52] = test system: M14 melanoma
[53] = test system: SN12C renal
[54] = test system: NCI/ADR-RES ovarian
[55] = test system: RPMI-8226 leukemia
[56] = test system: K-562 leukemia
[57] = test system: SF-539 CNS
[58] = test system: SR leukemia
[59] = test system: SK-MEL-2 melanoma

With `Cc1ccc2nc(-c3ccc(NC(=O)c4ccc(N)cc4)c(S(=O)(=O)O)c3)sc2c1` the TGI [1] was over 100 µM, the TGI [2] was over 100 µM and the TGI [3] was over 100 µM. For the same compound, the TGI [4] was over 100 µM, the TGI [5] was over 100 µM and the TGI [6] was over 100 µM. It also gave a TGI [7] of over 100 µM, a TGI [8] of over 100 µM and a TGI [9] of over 100 µM. The TGI [10] was over 100 µM, the TGI [11] was over 100 µM and the TGI [12] was over 100 µM. The TGI [13] was over 100 µM, the TGI [14] was over 100 µM and the TGI [15] was over 100 µM. The TGI [16] was over 100 µM, the TGI [17] was over 100 µM and the TGI [18] was over 100 µM. The TGI [19] was over 100 µM, the TGI [20] was over 100 µM and the TGI [21] was over 100 µM. For the same compound, the TGI [22] was over 100 µM, the TGI [23] was over 100 µM and the TGI [24] was over 100 µM. It also gave a TGI [25] of over 100 µM, a TGI [26] of over 100 µM and a TGI [27] of over 100 µM. It also gave a TGI [28] of over 100 µM, a TGI [29] of over 100 µM and a TGI [30] of over 100 µM. It also gave a TGI [31] of over 100 µM, a TGI [32] of over 100 µM and a TGI [33] of over 100 µM. For the same compound, the TGI [34] was over 100 µM, the TGI [35] was over 100 µM and the TGI [36] was over 100 µM. For the same compound, the TGI [37] was over 100 µM, the TGI [38] was over 100 µM and the TGI [39] was over 100 µM. For the same compound, the TGI [40] was over 100 µM, the TGI [41] was over 100 µM and the TGI [42] was over 100 µM. The TGI [43] was over 100 µM, the TGI [44] was over 100 µM and the TGI [45] was over 100 µM. The TGI [46] was over 100 µM, the TGI [47] was over 100 µM and the TGI [48] was over 100 µM. It also gave a TGI [49] of over 100 µM, a TGI [50] of over 100 µM and a TGI [51] of over 100 µM. It also gave a TGI [52] of over 100 µM, a TGI [53] of over 100 µM and a TGI [54] of over 100 µM. For the same compound, the TGI [55] was over 100 µM and the TGI [56] was over 100 µM.
`O=c1cc(NNc2ccccc2F)[nH]c(=O)[nH]1` was tested, and the TGI [57] was 30.7 µM, the TGI [1] was over 100 µM and the TGI [2] was 28.7 µM. It also gave a TGI [3] of over 100 µM, a TGI [4] of 25.7 µM and a TGI [5] of 35.1 µM. It also gave a TGI [6] of over 100 µM, a TGI [7] of over 100 µM and a TGI [8] of 72.5 µM. The TGI [9] was 60.8 µM, the TGI [10] was 21.2 µM and the TGI [11] was 29.9 µM. The TGI [12] was 29.2 µM, the TGI [13] was 63.4 µM and the TGI [14] was 31.5 µM. The TGI [15] was 30.6 µM, the TGI [16] was 35.2 µM and the TGI [17] was 47.6 µM. For the same compound, the TGI [18] was 3.29 µM, the TGI [19] was 34.9 µM and the TGI [20] was 49.5 µM. For the same compound, the TGI [21] was 30.4 µM, the TGI [22] was 32.3 µM and the TGI [23] was 29.6 µM. For the same compound, the TGI [58] was 7.37 µM, the TGI [25] was 34.3 µM and the TGI [26] was 42.8 µM. For the same compound, the TGI [27] was 33.3 µM, the TGI [59] was 30.8 µM and the TGI [28] was 31.9 µM. The TGI [29] was 31.6 µM, the TGI [30] was 32 µM and the TGI [31] was 18 µM. The TGI [33] was 31.6 µM, the TGI [35] was 27.5 µM and the TGI [36] was 29.7 µM. The TGI [37] was 32.9 µM, the TGI [38] was 31.5 µM and the TGI [39] was 31.8 µM. It also gave a TGI [40] of 31.9 µM, a TGI [41] of 2.3 µM and a TGI [42] of 24.6 µM. The TGI [43] was 33.8 µM, the TGI [44] was 34.9 µM and the TGI [45] was 28.7 µM. It also gave a TGI [46] of 54 µM, a TGI [49] of 32.5 µM and a TGI [50] of 38.7 µM. For the same compound, the TGI [51] was 30.9 µM, the TGI [52] was 31.5 µM and the TGI [54] was 31.4 µM. For the same compound, the TGI [55] was 46.2 µM and the TGI [56] was 57.6 µM.
Compound `Cc1oc(N)c(S(=O)(=O)c2cc3ccccc3n(O)c2=N)c1C` has a TGI [57] of over 100 µM, a TGI [1] of over 100 µM and a TGI [2] of over 100 µM. For the same compound, the TGI [3] was over 100 µM, the TGI [4] was over 100 µM and the TGI [5] was over 100 µM. It also gave a TGI [6] of over 100 µM, a TGI [7] of over 100 µM and a TGI [8] of over 100 µM. The TGI [9] was over 100 µM, the TGI [10] was over 100 µM and the TGI [11] was over 100 µM. It also gave a TGI [12] of over 100 µM, a TGI [13] of over 100 µM and a TGI [14] of over 100 µM. It also gave a TGI [16] of over 100 µM, a TGI [19] of over 100 µM and a TGI [20] of over 100 µM. It also gave a TGI [21] of over 100 µM, a TGI [22] of over 100 µM and a TGI [23] of over 100 µM. It also gave a TGI [24] of over 100 µM, a TGI [26] of over 100 µM and a TGI [27] of over 100 µM. For the same compound, the TGI [59] was over 100 µM, the TGI [28] was over 100 µM and the TGI [29] was over 100 µM. The TGI [30] was over 100 µM, the TGI [31] was over 100 µM and the TGI [32] was over 100 µM. It also gave a TGI [33] of over 100 µM, a TGI [34] of over 100 µM and a TGI [35] of over 100 µM. For the same compound, the TGI [36] was over 100 µM, the TGI [37] was over 100 µM and the TGI [38] was over 100 µM. The TGI [39] was over 100 µM, the TGI [40] was over 100 µM and the TGI [41] was over 100 µM. It also gave a TGI [42] of over 100 µM, a TGI [43] of over 100 µM and a TGI [44] of over 100 µM. The TGI [45] was over 100 µM, the TGI [46] was over 100 µM and the TGI [47] was over 100 µM. The TGI [48] was over 100 µM, the TGI [49] was over 100 µM and the TGI [50] was over 100 µM. For the same compound, the TGI [51] was over 100 µM, the TGI [52] was over 100 µM and the TGI [53] was over 100 µM. The TGI [54] was over 100 µM and the TGI [55] was over 100 µM.
`CC(C)CC(NP(=O)(O)OC1OC(C)C(O)C(O)C1O)C(=O)NC(Cc1c[nH]c2ccccc12)C(=O)O` (centres undefined) was tested, and the TGI [57] was over 100 µM, the TGI [1] was over 100 µM and the TGI [2] was over 100 µM. For the same compound, the TGI [3] was over 100 µM, the TGI [4] was over 100 µM and the TGI [5] was over 100 µM. For the same compound, the TGI [6] was over 100 µM, the TGI [7] was over 100 µM and the TGI [8] was over 100 µM. The TGI [9] was over 100 µM, the TGI [10] was over 100 µM and the TGI [11] was over 100 µM. It also gave a TGI [12] of over 100 µM, a TGI [13] of over 100 µM and a TGI [14] of over 100 µM. For the same compound, the TGI [15] was over 100 µM, the TGI [16] was over 100 µM and the TGI [17] was over 100 µM. The TGI [19] was over 100 µM, the TGI [20] was over 100 µM and the TGI [21] was over 100 µM. The TGI [23] was over 100 µM, the TGI [24] was over 100 µM and the TGI [26] was over 100 µM. The TGI [27] was over 100 µM, the TGI [28] was over 100 µM and the TGI [29] was over 100 µM. For the same compound, the TGI [30] was over 100 µM, the TGI [31] was over 100 µM and the TGI [32] was over 100 µM. It also gave a TGI [33] of over 100 µM, a TGI [34] of over 100 µM and a TGI [37] of over 100 µM. For the same compound, the TGI [38] was over 100 µM, the TGI [39] was over 100 µM and the TGI [40] was over 100 µM. The TGI [41] was over 100 µM, the TGI [42] was over 100 µM and the TGI [43] was over 100 µM. For the same compound, the TGI [44] was over 100 µM, the TGI [45] was over 100 µM and the TGI [46] was over 100 µM. The TGI [47] was over 100 µM, the TGI [48] was over 100 µM and the TGI [49] was over 100 µM. The TGI [50] was over 100 µM, the TGI [51] was over 100 µM and the TGI [52] was over 100 µM. It also gave a TGI [53] of over 100 µM, a TGI [54] of over 100 µM and a TGI [55] of over 100 µM. For the same compound, the TGI [56] was over 100 µM.

From PubChem BioAssay (NCI)
